US20160031839A1, “ARGININE […] INHIBITORS AND USES THEREOF” (EPIZYME, INC., priority 2013, published 2016)
Where two headings read alike, the source gives them in different places.

Assays:
[1] = molecular target: T1, PRMT8 (Homo sapiens, UniProt Q9NR22); assay: PRMT8 Biochemical Assay
T1 construct: Full-length human PRMT8 (NM_019854.4) isoform 1 transcript clone; made in house; host or cells: E. coli BL21(DE3) Gold
Excerpt: (§1) Peptide representative of human histone H4 residues 31-45 was synthesized with an N-terminal linker-affinity tag motif and a C-terminal amide cap by 21st Century Biochemicals. The peptide was purified by high-performance liquid chromatography (HPLC) to greater than 95% purity and confirmed by liquid chromatography mass spectrometry (LC-MS). The sequence was Biot-Ahx-[…]-amide (SEQ ID NO.:8).
The resulting construct encodes an N-terminal GST tag and a thrombin cleavage sequence
The column was washed with 50 mM phosphate buffer, 100 mM NaCl, 5% glycerol, 5 mM […], pH 7.8 and PRMT8 was eluted by 100 mM phosphate in the same buffer. Protein was concentrated and buffer was exchanged to 50 mM Tris, 300 mM NaCl, 10% glycerol, 5 mM 3-mercaptoethanol, pH 7.8 by ultrafiltration. The purity of recovered protein was 89%.
General Procedure for PRMT8 Enzyme Assays on Peptide Substrates.
The assays were all performed in a buffer consisting of 20 mM Bicine (pH=7.6), 1 mM TCEP, 0.005% BSG, and 0.002% Tween 20, prepared on the day of use. Compounds in 100% DMSO (1 ul) were spotted into a polypropylene 384-well V-bottom plates (Greiner) using a Platemate Plus outfitted with a 384-channel head (Thermo Scientific). DMSO (1 ul) was added to Columns 11, 12, 23, 24, rows A-H for the maximum signal control and 1 ul of SAH, a known product and inhibitor of PRMT8, was added to columns 11, 12, 23, 24, rows I-P for the minimum signal control. A cocktail (40 ul) containing the PRMT8 enzyme was added by Multidrop Combi (Thermo-Fisher). The compounds were allowed to incubate with PRMT8 for 30 min at room temperature, then a cocktail (10 ul) containing ^3H-SAM and peptide was added to initiate the reaction (final volume=51 ul). The final concentrations of the components were as follows: PRMT8 was 1.5 nM, ^3H-SAM was 50 nM, non-radiolabeled SAM was 550 nM, peptide was 150 nM, SAH in the minimum signal control wells was 1 mM, and the DMSO concentration was 2%. The assays were stopped by the addition of non-radiolabeled SAM (10 ul) to a final concentration of 400 uM, which dilutes the ^3H-SAM to a level where its incorporation into the peptide substrate is no longer detectable. 50 ul of the reaction in the 384-well polypropylene plate was then transferred to a 384-well Flashplate and the biotinylated peptides were allowed to bind to the streptavidin surface for at least 1 hour before being washed once with 0.1% Tween20 in a Biotek ELx405 plate washer. The plates were then read in a PerkinElmer TopCount plate reader to measure the quantity of ^3H-labeled peptide bound to the Flashplate surface, measured as disintegrations per minute (dpm) or alternatively, referred to as counts per minute (cpm).
(§2) Where dpm=disintegrations per minute, cmpd=signal in assay well, and min and max are the respective minimum and maximum signal controls.
(§3) Where top and bottom are the normally allowed to float, but may be fixed at 100 or 0 respectively in a 3-parameter fit. The Hill Coefficient normally allowed to float but may also be fixed at 1 in a 3-parameter fit. Y is the % inhibition and X is the compound concentration.

[2] = molecular target: T2, PRMT3 (Homo sapiens, UniProt O60678); assay: PRMT3 Biochemical Assay
T2 construct: made in house; host or cells: E. coli BL21(DE3) Gold
Excerpt: as §1, with “containing the classic RMT substrate motif” for “representative of human histone H4 residues 31-45”, “NO.:11).” for “NO.:8).”
Full-length human PRMT3 (NM_005788.3) isoform 1 transcript clone was amplified from an HEK 293 cDNA library and subcloned into pGEX-KG (GE Life Sciences). The resulting construct encodes an N-terminal GST tag and a thrombin cleavage sequence
GST-tagged PRMT3 was eluted with 50 mM Tris, 2 mM glutathione, pH 7.1 and 50 mM Tris, 20 mM glutathione, pH 7.1. Pooled fractions were dialysed in 20 mM Tris, 50 mM NaCl, 5% glycerol, 1 mM EDTA, 1 mM DTT, pH7.5 (Buffer B) and applied to a Q Sepharose Fast Flow column. GST-tagged PRMT3 was eluted by 500 mM NaCl in buffer B. Pooled fractions were dialyzed in 25 mM phosphate buffer, 100 mM NaCl, 5% glycerol, 2 mM DTT, pH 6.8 (Buffer C) and loaded on to a ceramic hydroxyapatite column. GST-tagged PRMT3 eluted with 25-400 mM phosphate in buffer C. Protein was concentrated and buffer was exchanged to 20 mM Tris, 150 mM NaCl, 5% glycerol, 5 mM β-mercaptoethanol, pH7.8 by ultrafiltration. The purity of recovered protein was 70%.
General Procedure for PRMT3 Enzyme Assays on Peptide Substrates.
The assays were all performed in a buffer consisting of 20 mM Bicine (pH=7.6), 1 mM TCEP, 0.005% BSG, and 0.002% Tween 20, prepared on the day of use. Compounds in 100% DMSO (1 ul) were spotted into a polypropylene 384-well V-bottom plates (Greiner) using a Platemate Plus outfitted with a 384-channel head (Thermo Scientific). DMSO (1 ul) was added to Columns 11, 12, 23, 24, rows A-H for the maximum signal control and 1 ul of SAH, a known product and inhibitor of PRMT3, was added to columns 11, 12, 23, 24, rows I-P for the minimum signal control. A cocktail (40 ul) containing the PRMT3 enzyme was added by Multidrop Combi (Thermo-Fisher). The compounds were allowed to incubate with PRMT3 for 30 min at room temperature, then a cocktail (10 ul) containing SAM and peptide was added to initiate the reaction (final volume=51 ul). The final concentrations of the components were as follows: PRMT3 was 0.5 nM, ^3H-SAM was 100 nM, non-radiolabeled SAM was 1.8 uM, peptide was 330 nM, SAH in the minimum signal control wells was 1 mM, and the DMSO concentration was 2%. The assays were stopped by the addition of potassium chloride (10 ul) to a final concentration of 100 mM. 50 ul of the reaction in the 384-well polypropylene plate was then transferred to a 384-well Flashplate and the biotinylated peptides were allowed to bind to the streptavidin surface for at least 1 hour before being washed once with 0.1% Tween20 in a Biotek ELx405 plate washer. The plates were then read in a PerkinElmer TopCount plate reader to measure the quantity of ^3H-labeled peptide bound to the Flashplate surface, measured as disintegrations per minute (dpm) or alternatively, referred to as counts per minute (cpm).
as §2, §3

[3] = Table 2, biochemical evaluation, read-out: PRMT8 IC50 (class)
[4] = Table 2a, numerical, single experiment or average of multiple experiments, read-out: PRMT8 IC50
[5] = Table 2, biochemical evaluation, read-out: PRMT3 IC50 (class)
[6] = Table 2a, numerical, single experiment or average of multiple experiments, read-out: PRMT3 IC50

T1 sequence (Q9NR22 whole entry, canonical isoform): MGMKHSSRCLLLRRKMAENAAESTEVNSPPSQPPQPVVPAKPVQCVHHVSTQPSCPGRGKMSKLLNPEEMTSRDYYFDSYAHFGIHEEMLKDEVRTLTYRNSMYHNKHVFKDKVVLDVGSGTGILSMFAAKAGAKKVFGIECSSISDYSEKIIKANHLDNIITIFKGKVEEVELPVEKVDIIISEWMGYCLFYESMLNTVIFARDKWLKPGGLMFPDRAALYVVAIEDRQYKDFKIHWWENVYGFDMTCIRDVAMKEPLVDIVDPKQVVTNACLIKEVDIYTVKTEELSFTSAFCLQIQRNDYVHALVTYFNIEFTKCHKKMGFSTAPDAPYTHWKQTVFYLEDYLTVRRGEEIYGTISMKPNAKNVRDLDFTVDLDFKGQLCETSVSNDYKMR
T2 sequence (O60678 with tags, fused parts or gaps): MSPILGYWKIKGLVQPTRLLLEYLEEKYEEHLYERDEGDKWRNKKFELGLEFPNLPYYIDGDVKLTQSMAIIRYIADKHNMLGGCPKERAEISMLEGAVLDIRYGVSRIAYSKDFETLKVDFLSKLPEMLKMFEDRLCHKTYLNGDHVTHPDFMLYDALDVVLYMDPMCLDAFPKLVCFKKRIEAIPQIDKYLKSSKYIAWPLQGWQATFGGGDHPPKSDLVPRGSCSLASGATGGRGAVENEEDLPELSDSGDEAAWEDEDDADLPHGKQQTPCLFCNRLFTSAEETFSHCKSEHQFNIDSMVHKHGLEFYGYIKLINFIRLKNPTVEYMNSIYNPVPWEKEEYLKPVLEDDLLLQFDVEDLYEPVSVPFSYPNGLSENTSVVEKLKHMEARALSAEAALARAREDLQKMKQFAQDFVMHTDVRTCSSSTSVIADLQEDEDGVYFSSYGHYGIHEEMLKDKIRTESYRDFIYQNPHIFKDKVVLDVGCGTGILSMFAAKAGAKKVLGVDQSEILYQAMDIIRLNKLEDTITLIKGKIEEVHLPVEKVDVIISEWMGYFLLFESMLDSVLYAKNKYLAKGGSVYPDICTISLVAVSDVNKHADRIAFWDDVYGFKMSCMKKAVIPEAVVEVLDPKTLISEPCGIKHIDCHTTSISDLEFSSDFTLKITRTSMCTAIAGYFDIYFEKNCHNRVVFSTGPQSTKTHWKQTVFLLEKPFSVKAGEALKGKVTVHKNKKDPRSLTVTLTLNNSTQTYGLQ

Row | SMILES | IC50 [1, 3] | IC50 [1, 4] | IC50 [2, 5] | IC50 [2, 6]
1 | CN(CCN)Cc1nsnc1-c1ccc(C#N)cc1 [Compound 7, 4-(4-(((2-aminoethyl)(methyl)amino)methyl)-1,2,5-thiadiazol-3-yl)benzonitrile] | 101 to 1000 nM | 445 nM |  | 
2 | CN(CCN)Cc1[nH]cnc1-c1ccc(C#N)cc1 [Compound 10, 4-(5-(((2-aminoethyl)(methyl)amino)methyl)-1H-imidazol-4-yl)benzonitrile] | 3010 to 10000 nM | 3130 nM |  | 
3 | CN(CCN)Cc1ccnn1-c1ccc(C#N)cc1 [Compound 2, 4-(5-(((2-aminoethyl)(methyl)amino)methyl)-1H-pyrazol-1-yl)benzonitrile] | 1010 to 3000 nM | 1300 nM | > 10000 nM | > 10000 nM
4 | CN(CCN)Cc1ccnn1-c1ccc(Oc2ccccc2)cc1 [Compound 9] | < 100 nM | 71.8 nM |  | 
5 | CN(CCN)Cc1ocnc1-c1ccc(C#N)cc1 [Compound 4, 4-(5-(((2-aminoethyl)(methyl)amino)methyl)oxazol-4-yl)benzonitrile] | 101 to 1000 nM | 509 nM |  | 
6 | CN(CCN)Cc1cncn1-c1ccc(C#N)cc1 [Compound 6, 4-(5-(((2-aminoethyl)(methyl)amino)methyl)-1H-imidazol-1-yl)benzonitrile] | 3010 to 10000 nM | 8210 nM |  | 
7 | CN(CCN)Cc1n[nH]nc1-c1ccc(C#N)cc1 [Compound 3, 4-(5-(((2-aminoethyl)(methyl)amino)methyl)-2H-1,2,3-triazol-4-yl)benzonitrile] | 1010 to 3000 nM | 1550 nM | > 10000 nM | > 10000 nM
8 | CN(CCN)Cc1oncc1-c1ccc(F)cc1 [Compound 11, N^1-((4-(4-fluorophenyl)isoxazol-5-yl)methyl)-N^1-methylethane-1,2-diamine] | > 10000 nM | > 10000 nM |  | 
9 | CN(CCN)Cc1ncoc1-c1ccc(C#N)cc1 [Compound 1, 4-(4-(((2-aminoethyl)(methyl)amino)methyl)oxazol-5-yl)benzonitrile] | 3010 to 10000 nM | 1870 nM | > 10000 nM | > 10000 nM
10 | CC(C)Oc1ccc(-n2nccc2CN(C)CCN)cc1 [Compound 8, N^1-((1-(4-isopropoxyphenyl)-1H-pyrazol-5-yl)methyl)-N^1-methylethane-1,2-diamine] | < 100 nM | 89.7 nM |  | 
